The results in this text go back to US8853246B2 (Dow AgroSciences LLC, priority 2009, dated 2014).

Each structure is given as a SMILES string. Some results are limits rather than exact numbers.

The test system of experiment [1] is Sweetpotato Whitefly-Crawler (Bemisia Tabaci). In words: Insecticidal test for sweetpotato whitefly-crawler in foliar spray assay (col. BEMITA). The format is in vivo. Particulars: sweetpotato whitefly-crawler; for pest or weed control at 200 ppm: Bemisia tabaci, read-out: BEMITA 200 ppm (Corrected % Control, rating). Summed up:
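Cotton plants (one 3-5 cm true leaf) infested with whitefly eggs (100-300/plant), held 5-6 days at 82° F, 50% RH until crawlers developed. Sprayed to runoff at 200 ppm (acetone stock diluted in 0.025% Tween 20), four plants per treatment. Live nymphs counted after 8-9 days; % control by Abbott's correction versus solvent check.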

The subject of experiment [2] is Green Peach Aphid (Myzus Persicae). In words: Insecticidal test for green peach aphid in foliar spray assay (col. MYZUPE). It is filed as in vivo. Particulars: green peach aphid; for pest or weed control at 200 ppm: Myzus persicae, 72 h, read-out: MYZUPE 200 ppm (Corrected % Control, rating). An outline of the steps: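 Cabbage seedlings with 2-3 true leaves, infested with 20-50 wingless adult and nymph aphids one day earlier, sprayed to runoff at 200 ppm (acetone/methanol stock diluted in 0.025% Tween 20), four pots per treatment. After 3 days at ~25 °C, 40% RH, live aphids counted; corrected % control versus solvent-sprayed plants.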

For `Cc1nc(-c2cccnc2)sc1NC(=O)c1ccoc1` [Compound 399], the pest or weed control at 200 ppm in experiment [1] and in experiment [2] was 80 to 100% in each case.

`CN(C(=O)c1ccoc1)c1sc(-c2cccnc2)nc1Cl` [Compound 401]: the “BEMITA 200 ppm (Corrected % Control, rating)” value in experiment [1] is on record as “A (80-100)”. For the same molecule, the “MYZUPE 200 ppm (Corrected % Control, rating)” value in experiment [2] is given as “A (80-100)”.

Regarding `Cc1nc(-c2cccnc2)sc1N(C)C(=O)c1ccc([S+](C)[O-])cc1` (stereo not drawn) [Compound 402], in experiment [1], the “BEMITA 200 ppm (Corrected % Control, rating)” value is “A (80-100)”. Further, the “MYZUPE 200 ppm (Corrected % Control, rating)” value in experiment [2] is given as “A (80-100)”.

As to `CN(C(=O)c1ccc([S+](C)[O-])cc1)c1sc(-c2cccnc2)nc1Cl` (stereo not drawn) [Compound 403], the “BEMITA 200 ppm (Corrected % Control, rating)” value in experiment [1] is “B (Less than 80)”. The “MYZUPE 200 ppm (Corrected % Control, rating)” value in experiment [2] is “A (80-100)”.

`Cc1nc(-c2cccnc2)sc1N(C)C(=O)c1ccc(=O)n(C)n1` [Compound 404]: the “BEMITA 200 ppm (Corrected % Control, rating)” value in experiment [1] was “B (Less than 80)”. For the same molecule, the “MYZUPE 200 ppm (Corrected % Control, rating)” value in experiment [2] is reported as “A (80-100)”.

Turning to `CN(C(=O)c1ccc(=O)n(C)n1)c1sc(-c2cccnc2)nc1Cl` [Compound 405], the “BEMITA 200 ppm (Corrected % Control, rating)” value in experiment [1] was “B (Less than 80)”. In addition, the “MYZUPE 200 ppm (Corrected % Control, rating)” value in experiment [2] is “A (80-100)”.

`Cc1cc(C(=O)Nc2sc(-c3cccnc3)nc2C)ccn1` [Compound 406]: the pest or weed control at 200 ppm in experiment [1] was under 80%; in experiment [2] it was 80 to 100%.

For `Cc1cc(C(=O)N(C)c2sc(-c3cccnc3)nc2Cl)ccn1` [Compound 407], the pest or weed control at 200 ppm in experiment [1] is under 80%; in experiment [2], 80 to 100%.

With `CSCc1ccc(C(=O)Nc2sc(-c3cccnc3)nc2C)o1` [Compound 408], the pest or weed control at 200 ppm in experiment [1] and in experiment [2] was 80 to 100% in each case.

Regarding `CSCc1ccc(C(=O)N(C)c2sc(-c3cccnc3)nc2Cl)o1` [Compound 409], in experiment [1], the “BEMITA 200 ppm (Corrected % Control, rating)” value is “A (80-100)”. Moreover, in experiment [2], the “MYZUPE 200 ppm (Corrected % Control, rating)” value is on record as “A (80-100)”.

Take `Cc1nc(-c2cccnc2)sc1N(C)C(=O)C1CCCN(C(=O)C(C)C)C1` (stereo not drawn) [Compound 410]: the pest or weed control at 200 ppm in experiment [1] and in experiment [2] was 80 to 100% throughout.

Regarding `CC(C)C(=O)N1CCCC(C(=O)N(C)c2sc(-c3cccnc3)nc2Cl)C1` (stereo not drawn) [Compound 411], the pest or weed control at 200 ppm in experiment [1] and in experiment [2] was 80 to 100% each time.

As to `CC(=O)N1CCCC(C(=O)N(C)c2sc(-c3cccnc3)nc2C)C1` (stereo not drawn) [Compound 412], the pest or weed control at 200 ppm in experiment [1] and in experiment [2] was 80 to 100% in each case.

As to `CC(=O)N1CCCC(C(=O)N(C)c2sc(-c3cccnc3)nc2Cl)C1` (stereo not drawn) [Compound 413], the pest or weed control at 200 ppm in experiment [1] was under 80%; in experiment [2], 80 to 100%.

As to `CN(C(=O)C1CCOC1)c1sc(-c2cccnc2)nc1Cl` (stereo not drawn) [Compound 415], in experiment [1], the “BEMITA 200 ppm (Corrected % Control, rating)” value was “A (80-100)”. Moreover, in experiment [2], the “MYZUPE 200 ppm (Corrected % Control, rating)” value was “A (80-100)”.

As for `Cc1nc(-c2cccnc2)sc1NC(=O)CCC1CC1` [Compound 416], the pest or weed control at 200 ppm in experiment [1] and in experiment [2] was 80 to 100% throughout.

For `Cc1nc(-c2cccnc2)sc1NC(=O)CC1CC1` [Compound 417], the pest or weed control at 200 ppm in experiment [1] and in experiment [2] was 80 to 100% each time.

Consider `C/C=C/CCC(=O)Nc1sc(-c2cccnc2)nc1C` [Compound 418], for which the pest or weed control at 200 ppm in experiment [1] and in experiment [2] was 80 to 100% throughout.

As to `CCN(C(=O)OC(C)(C)C)c1sc(-c2cncc(F)c2)nc1F` [Compound 423], the results for the pest or weed control at 200 ppm in experiment [1] and in experiment [2] were 80 to 100% and under 80%, respectively.

Consider `CCN(C(=O)C(C)C)c1sc(-c2cncc(F)c2)nc1F` [Compound 424], for which the pest or weed control at 200 ppm in experiment [1] and in experiment [2] was 80 to 100% each time.

Regarding `CCN(C(=O)CCSC)c1sc(-c2cncc(F)c2)nc1F` [Compound 425], the pest or weed control at 200 ppm in experiment [1] and in experiment [2] was 80 to 100% throughout.
